Laboratory results published in article PMC7464485, “Antimicrobial Activities of Highly Bioavailable Organic Salts and Ionic Liquids from Fluoroquinolones” (Pharmaceutics, 2020).
In brackets after ≈: the same amount, converted by molar mass. Like-named read-outs stand apart in the source and are kept apart here.

Legend:
[1] = system: Klebsiella pneumoniae (ATCC 11296); assay: Antimicrobial activity (growth, OD 600 nm); format: cell-based
[2] = system: Staphylococcus aureus (ATCC 25923); assay: Antimicrobial activity (growth, OD 600 nm); format: cell-based
[3] = system: Bacillus subtilis (ATCC 6633); assay: Antimicrobial activity (growth, OD 600 nm); format: cell-based
[4] = Critical micelle concentration via ionic conductivity; format: physicochemical; details: for CMC: in water at 25 °C
[5] = in water at 25 °C, cited from earlier work
3T3 mouse fibroblasts = assay: Cytotoxicity on 3T3 cells (MTT); format: cell-based
[6] = cited from earlier work
[7] = Klebsiella pneumoniae, ATCC11296, 0.001–10 µM, read-out: IC50 K. pneumoniae
[8] = Staphylococcus aureus, ATCC25923, 0.001–10 µM, read-out: IC50 S. aureus
[9] = Bacillus subtilis, ATCC6633, 0.001–10 µM, read-out: IC50 B. subtilis
[10] = 0.001–10 µM, read-out: IC50 K. pneumoniae
[11] = relative decrease of inhibitory concentration vs ciprofloxacin
[12] = 0.001–10 µM, read-out: IC50 S. aureus
[13] = 0.001–10 µM, read-out: IC50 B. subtilis
[14] = relative decrease of inhibitory concentration vs norfloxacin

| IC50 [1, 7] | IC50 [2, 8] | IC50 [3, 9] | SMILES | IC50 [1, 10] | IC50 [2, 12] | IC50 [3, 13] | RDIC50 B. subtilis [3, 11] | RDIC50 K. pneumoniae [1, 14] | RDIC50 S. aureus [2, 14] | RDIC50 B. subtilis [3, 14] | also measured |
| --- | --- | --- | --- | --- | --- | --- | --- | --- | --- | --- | --- |
| > 10 µM | > 10 µM | > 10 µM | CCn1cc[n+](C)c1 [[EMIM]Br, reference compound] | – | – | – | – | – | – | – | – |
| – | – | – | Cc1n(CCO)cc[n+]1C.O=C([O-])c1cn(C2CC2)c2cc(N3CCNCC3)c(F)cc2c1=O [[C2OHDMIM][Cip]] | 0.051 µM | 0.0212 µM | 0.0123 µM | 0.3 | – | – | – | RDIC50 K. pneumoniae [1, 11]: 3.9; RDIC50 S. aureus [2, 11]: 1.4 |
| > 10 µM | > 10 µM | > 10 µM | Cc1n(CCO)cc[n+]1C [[C2OHDMIM]Cl, reference compound] | – | – | – | – | – | – | – | – |
| – | – | – | CCn1cc(C(=O)[O-])c(=O)c2cc(F)c(N3CCNCC3)cc21.C[N+](C)(C)CCO [[Ch][Nor]] | 0.199 µM | 0.127 µM | 0.0955 µM | – | 1.3 | 1.0 | 1.2 | – |
| – | – | – | CCn1cc(C(=O)[O-])c(=O)c2cc(F)c(N3CCNCC3)cc21.COCC[n+]1ccn(C)c1 [[C3OMIM][Nor]] | 0.225 µM | 0.107 µM | 0.0681 µM | – | 1.1 | 1.1 | 1.7 | – |
| – | – | – | CCCCCCCCCCCCCCCC[n+]1ccccc1.[Cl-] [[C16Py]Cl] | – | – | – | – | – | – | – | CMC [4]: 1.063 mmol/L; CMC ([5]; ref 49): 1.067 mmol/L; CMC ([5]; ref 50): 0.96 mmol/L |
| – | – | – | C[N+](C)(C)CCO.O=C([O-])c1cn(C2CC2)c2cc(N3CCNCC3)c(F)cc2c1=O [[Ch][Cip]] | 0.0511 µM | 0.181 µM | 0.0206 µM | 0.2 | – | – | – | RDIC50 S. aureus [2, 11]: 0.2 |
| – | – | – | CCn1cc(C(=O)[O-])c(=O)c2cc(F)c(N3CCNCC3)cc21.Cc1n(CCO)cc[n+]1C [[C2OHDMIM][Nor]] | 0.178 µM | 0.0795 µM | 0.149 µM | – | 1.4 | 1.6 | 0.8 | increase in activity against K. pneumoniae vs norfloxacin [1]: 40%; increased activity against S. aureus vs norfloxacin [2]: 60%; lost activity against B. subtilis vs norfloxacin [3]: 20% |
| > 10 µM | > 10 µM | > 10 µM | COCCn1cc[n+](C)c1 [[C3Omim]Cl, reference compound] | – | – | – | – | – | – | – | – |
| – | – | – | CCCCCCCCCCCCCCCC[n+]1ccccc1.CCn1cc(C(=O)[O-])c(=O)c2cc(F)c(N3CCNCC3)cc21 [[C16Py][Nor]] | 0.203 µM | 0.0108 µM | 0.0873 µM | – | 1.3 | 11.4 | 1.3 | decrease of CMC in comparison with [C16Py]Cl [4]: 95%; CMC [4]: 0.0539 mmol/L; IC50 (3T3 mouse fibroblasts): 5.17 µM; IC50 (3T3 mouse fibroblasts; 0.03–10 µM, 24 h): 5.17 µM; increase in activity against K. pneumoniae vs norfloxacin [1]: 30% |
| – | – | – | COCC[n+]1ccn(C)c1.O=C([O-])c1cn(C2CC2)c2cc(N3CCNCC3)c(F)cc2c1=O [[C3OMIM][Cip]] | 0.0476 µM | 0.082 µM | 0.0217 µM | 0.2 | – | – | – | RDIC50 K. pneumoniae [1, 11]: 4.1; RDIC50 S. aureus [2, 11]: 0.4 |
| – | – | – | CCCCCCCCCCCCCCCC[n+]1ccccc1.O=C([O-])c1cn(C2CC2)c2cc(N3CCNCC3)c(F)cc2c1=O [[C16Py][Cip]] | 0.00988 µM | 1.43 µM | 0.00607 µM | 0.6 | – | – | – | CMC [4]: 0.0816 mmol/L; IC50 (3T3 mouse fibroblasts): 4.72 µM; IC50 (3T3 mouse fibroblasts; 0.03–10 µM, 24 h): 4.72 µM; RDIC50 K. pneumoniae [1, 11]: 19.9; activity against S. aureus [2]: almost no activity; RDIC50 S. aureus [2, 11]: 0.0; decrease of activity against B. subtilis in comparison with ciprofloxacin [3]: 40% |
| > 10 µM | > 10 µM | > 10 µM | C[n+]1ccn(CCO)c1 [[C2OHmim]Cl, reference compound] | – | – | – | – | – | – | – | – |
| – | – | – | CCn1cc(C(=O)[O-])c(=O)c2cc(F)c(N3CCNCC3)cc21.CCn1cc[n+](C)c1 [[EMIM][Nor]] | 0.208 µM | 0.211 µM | 0.0245 µM | – | 1.2 | 0.6 | 4.8 | – |
| – | – | – | CCn1cc(C(=O)[O-])c(=O)c2cc(F)c(N3CCNCC3)cc21.C[n+]1ccn(CCO)c1 [[C2OHMIM][Nor]] | 0.201 µM | 0.0917 µM | 0.0886 µM | – | 1.3 | 1.3 | 1.3 | – |
| – | – | – | CCn1cc[n+](C)c1.O=C([O-])c1cn(C2CC2)c2cc(N3CCNCC3)c(F)cc2c1=O [[EMIM][Cip]] | 0.0648 µM | 0.0242 µM | 0.0162 µM | 0.2 | – | – | – | RDIC50 K. pneumoniae [1, 11]: 3.0; RDIC50 S. aureus [2, 11]: 1.2 |
| – | – | – | C[N+](C)(C)CCO.[Cl-] [[Ch]Cl, reference compound] | – | – | – | – | – | – | – | IC50 ([1]; Klebsiella pneumoniae, ATCC11296, read-out: IC50 K. pneumoniae, 0.001–10 µM): > 10 µM; IC50 ([2]; Staphylococcus aureus, ATCC25923, read-out: IC50 S. aureus): > 10 µM; IC50 ([3]; Bacillus subtilis, ATCC6633, read-out: IC50 B. subtilis): > 10 µM |
| – | – | – | C[n+]1ccn(CCO)c1.O=C([O-])c1cn(C2CC2)c2cc(N3CCNCC3)c(F)cc2c1=O [[C2OHMIM][Cip]] | 0.0364 µM | – | 0.0158 µM | 0.2 | – | – | – | RDIC50 K. pneumoniae [1, 11]: 5.4 |

| SMILES | IC50 [1, 7] | IC50 [2, 8] | IC50 [3, 9] | IC50 [1, 10] | IC50 [2, 12] | IC50 [3, 13] | RDIC50 B. subtilis [3, 11] | RDIC50 K. pneumoniae [1, 14] | RDIC50 S. aureus [2, 14] | RDIC50 B. subtilis [3, 14] | also measured |
| --- | --- | --- | --- | --- | --- | --- | --- | --- | --- | --- | --- |
| O=C(O)c1cn(C2CC2)c2cc(N3CCNCC3)c(F)cc2c1=O [Ciprofloxacin, ciprofloxacin, reference compound] | 0.197 µM | 0.0292 µM | 0.00384 µM | – | – | – | – | – | – | – | – |
| CCn1cc(C(=O)O)c(=O)c2cc(F)c(N3CCNCC3)cc21 [Norfloxacin, norfloxacin, reference compound] | 0.255 µM | 0.123 µM | 0.0977 µM | – | – | – | – | – | – | – | IC50 ([3]; 0.001–10 µM, listed as Nor, read-out: IC50 B. subtilis): 0.117 µM; Solubility in water ([6]; 25 °C, neutral form): 0.37 mg/mL (≈ 1160 µM); Solubility in water ([6]; 25 °C, value outside parentheses): 0.54 ± 0.02 mg/mL (≈ 1690 µM); Solubility in water ([6]; 37 °C, value in parentheses): 0.85 ± 0.04 mg/mL (≈ 2660 µM); Solubility in water ([6]; 37 °C, value outside parentheses): 0.84 ± 0.02 mg/mL (≈ 2630 µM) |
